Results taken from publication PMC12649549, “Sequence Permutation Generated Lysine and Tryptophan-Rich Antimicrobial Peptides with Enhanced Therapeutic Index” (Antibiotics, 2025).
Where two headings read alike, the source gives them in different places.

Columns and labels:
[1] = tested on: Escherichia coli (ATCC 25922)
In short: (§1)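 Broth microdilution per CLSI in Müller-Hinton broth and modified LYM broth (pH 7.4; variants with 300–50 mM NaCl, 2.5–0.5 mM MgCl2, or pH 6.5–4.5). Inoculum 5 × 10^5 CFU/mL; peptides at final 50 to 0.78 µg/mL, twofold series. MIC reported; three independent repeats.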

[2] = tested on: A. baumannii 14B00100 (Acinetobacter sp., BCRC number 14B0100)
In short: as §1

S. aureus ATCC 6538 = tested on: S. aureus ATCC 6538
In short: as §1

[3] = tested on: A. baumannii 14B0097 (Acinetobacter sp., BCRC number 14B0097)
In short: as §1

S. aureus ATCC 25923 = tested on: S. aureus ATCC 25923
In short: as §1

[4] = tested on: A. baumannii 14B0091 (Acinetobacter sp., BCRC number 14B0091)
In short: as §1

Gram-negative bacteria = test: Geometric mean MIC and therapeutic index, Gram-negative bacteria; type: cell-based; conditions: Gram-negative bacteria
In short: (§2)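 CLSI broth microdilution in Müller-Hinton broth and modified LYM broth (pH 7.4 base; NaCl, MgCl2 and pH varied), 5 × 10^5 CFU/mL inoculum, peptides 0.78–50 µg/mL final. TI = HC10 for human red blood cells divided by geometric mean MIC; three independent repeats.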

Gram-positive bacteria = test: Geometric mean MIC and therapeutic index, Gram-positive bacteria; type: cell-based; conditions: Gram-positive bacteria
In short: as §2

[5] = LYM broth, 0 mM NaCl, 16 h, 37 °C
[6] = LYM broth, 50 mM NaCl, 16 h, 37 °C
[7] = LYM broth, 100 mM NaCl, 16 h, 37 °C
[8] = LYM broth, 200 mM (NaCl), 16 h, 37 °C
[9] = LYM broth, 300 mM (NaCl), 16 h, 37 °C
[10] = MH broth, 5 × 10^5 CFU/mL, 16 h, 37 °C, repeated three times
[11] = MH broth, MIC >50 µg/mL counted as 100 µg/mL

With Ac-WRKWLKWLAKKKK-NH2 [Peptide W5K02] the MIC [1, 5] was 6.25 µg/mL, the MIC ([1]; LYM broth, 0.5 mM MgCl2) was 6.25 µg/mL and the MIC ([1]; LYM broth, 1.5 mM MgCl2) was 12.5 µg/mL. The MIC ([1]; LYM broth, 2.5 mM MgCl2) was 12.5 µg/mL, the MIC [1, 6] was 12.5 µg/mL and the MIC [1, 7] was 25 µg/mL. The MIC [1, 8] was >50 µg/mL, the MIC [1, 9] was >50 µg/mL and the MIC ([1]; LYM broth, pH 4.5) was 3.13 µg/mL. The MIC ([1]; LYM broth, pH 5.5) was 3.13 µg/mL, the MIC ([1]; LYM broth, pH 6.5) was 3.13 µg/mL and the MIC [1, 10] was 12.5 µg/mL. The MIC [2, 5] was 1.56 µg/mL, the MIC ([2]; LYM broth, 0.5 mM MgCl2) was 1.56 µg/mL and the MIC ([2]; LYM broth, 1.5 mM MgCl2) was 1.56 µg/mL. The MIC ([2]; LYM broth, 2.5 mM MgCl2) was 3.13 µg/mL, the MIC [2, 6] was 1.56 µg/mL and the MIC [2, 7] was 1.56 µg/mL. For the same substance, the MIC [2, 8] was 3.13 µg/mL, the MIC [2, 9] was 6.25 µg/mL and the MIC ([2]; LYM broth, pH 4.5) was 1.56 µg/mL. The MIC ([2]; LYM broth, pH 5.5) was 1.56 µg/mL, the MIC ([2]; LYM broth, pH 6.5) was 1.56 µg/mL and the MIC [2, 10] was 6.25 µg/mL. The MIC (S. aureus ATCC 6538; [5]) was 6.25 µg/mL, the MIC (S. aureus ATCC 6538; LYM broth, 0.5 mM MgCl2) was 3.13 µg/mL and the MIC (S. aureus ATCC 6538; LYM broth, 1.5 mM MgCl2) was 3.13 µg/mL. For the same substance, the MIC (S. aureus ATCC 6538; LYM broth, 2.5 mM MgCl2) was 6.25 µg/mL, the MIC (S. aureus ATCC 6538; [6]) was 6.25 µg/mL and the MIC (S. aureus ATCC 6538; [7]) was 12.5 µg/mL. It also gave an MIC (S. aureus ATCC 6538; [8]) of 25 µg/mL, an MIC (S. aureus ATCC 6538; [9]) of 50 µg/mL and an MIC (S. aureus ATCC 6538; LYM broth, pH 4.5) of 6.25 µg/mL. For the same substance, the MIC (S. aureus ATCC 6538; LYM broth, pH 5.5) was 3.13 µg/mL, the MIC (S. aureus ATCC 6538; LYM broth, pH 6.5) was 3.13 µg/mL and the MIC (S. aureus ATCC 6538; [10]) was 12.5 µg/mL. It also gave an MIC [3, 5] of 1.56 µg/mL, an MIC ([3]; LYM broth, 0.5 mM MgCl2) of 1.56 µg/mL and an MIC ([3]; LYM broth, 1.5 mM MgCl2) of 3.13 µg/mL. For the same substance, the MIC ([3]; LYM broth, 2.5 mM MgCl2) was 3.13 µg/mL, the MIC [3, 6] was 1.56 µg/mL and the MIC [3, 7] was 1.56 µg/mL. The MIC [3, 8] was 3.13 µg/mL, the MIC [3, 9] was 6.25 µg/mL and the MIC ([3]; LYM broth, pH 4.5) was 3.13 µg/mL. The MIC ([3]; LYM broth, pH 5.5) was 3.13 µg/mL, the MIC ([3]; LYM broth, pH 6.5) was 3.13 µg/mL and the MIC [3, 10] was 3.13 µg/mL. It also gave an MIC (S. aureus ATCC 25923; [5]) of 6.25 µg/mL, an MIC (S. aureus ATCC 25923; LYM broth, 0.5 mM MgCl2) of 6.25 µg/mL and an MIC (S. aureus ATCC 25923; LYM broth, 1.5 mM MgCl2) of 6.25 µg/mL. It also gave an MIC (S. aureus ATCC 25923; LYM broth, 2.5 mM MgCl2) of 6.25 µg/mL, an MIC (S. aureus ATCC 25923; [6]) of 6.25 µg/mL and an MIC (S. aureus ATCC 25923; [7]) of 12.5 µg/mL. For the same substance, the MIC (S. aureus ATCC 25923; [8]) was 50 µg/mL, the MIC (S. aureus ATCC 25923; [9]) was >50 µg/mL and the MIC (S. aureus ATCC 25923; LYM broth, pH 4.5) was 3.13 µg/mL. It also gave an MIC (S. aureus ATCC 25923; LYM broth, pH 5.5) of 3.13 µg/mL, an MIC (S. aureus ATCC 25923; LYM broth, pH 6.5) of 3.13 µg/mL and an MIC (S. aureus ATCC 25923; [10]) of 25 µg/mL. For the same substance, the MIC [4, 5] was 1.56 µg/mL, the MIC ([4]; LYM broth, 0.5 mM MgCl2) was 1.56 µg/mL and the MIC ([4]; LYM broth, 1.5 mM MgCl2) was 1.56 µg/mL. It also gave an MIC ([4]; LYM broth, 2.5 mM MgCl2) of 1.56 µg/mL, an MIC [4, 6] of 1.56 µg/mL and an MIC [4, 7] of 1.56 µg/mL. For the same substance, the MIC [4, 8] was 3.13 µg/mL, the MIC [4, 9] was 6.25 µg/mL and the MIC ([4]; LYM broth, pH 4.5) was 1.56 µg/mL. It also gave an MIC ([4]; LYM broth, pH 5.5) of 1.56 µg/mL, an MIC ([4]; LYM broth, pH 6.5) of 1.56 µg/mL and an MIC [4, 10] of 3.13 µg/mL. For the same substance, the “GM G− (geometric mean of the MIC values)” value (Gram-negative bacteria; [11]) was 7.2 µg/mL, the “Therapeutic Index (TI) G−” value (Gram-negative bacteria; HC10/GM) was 2.3 and the “GM G+ (geometric mean of the MIC values)” value (Gram-positive bacteria; [11]) was 21.8 µg/mL. For the same substance, the “Therapeutic Index (TI) G+” value (Gram-positive bacteria; HC10/GM) was 0.8.
